Experimental data reported in ChEMBL document CHEMBL1165890, “Inside HDAC with HDAC inhibitors” (Eur J Med Chem, 2010).
pIC50: −log10 of the molar value. Non-standard residues stand in square brackets, D forms with d. Residues, ends and D or L forms follow the SMILES beside them. *: point of attachment. Ala(indol-2-yl) = N[C@@H](Cc1cc2ccccc2[nH]1)C(=O)O; Asu = N[C@@H](CCCCCC(=O)O)C(=O)O; β3hI = CC[C@H](C)[C@H](N)CC(=O)O; NHOH = ON*

Tests used:
Histone deacetylase = conditions: hela
Description: Inhibition of HDAC in human HeLa cells

HCT-116 = assay: Antitumor activity against human HCT116 cells xenografted in mouse at 30 mg/kg; type: functional
Histone deacetylase 3 = Histone deacetylase 3 (Homo sapiens, UniProt O15379); assay: Inhibition of recombinant HDAC3
Histone deacetylase 3, sequence (O15379 whole entry): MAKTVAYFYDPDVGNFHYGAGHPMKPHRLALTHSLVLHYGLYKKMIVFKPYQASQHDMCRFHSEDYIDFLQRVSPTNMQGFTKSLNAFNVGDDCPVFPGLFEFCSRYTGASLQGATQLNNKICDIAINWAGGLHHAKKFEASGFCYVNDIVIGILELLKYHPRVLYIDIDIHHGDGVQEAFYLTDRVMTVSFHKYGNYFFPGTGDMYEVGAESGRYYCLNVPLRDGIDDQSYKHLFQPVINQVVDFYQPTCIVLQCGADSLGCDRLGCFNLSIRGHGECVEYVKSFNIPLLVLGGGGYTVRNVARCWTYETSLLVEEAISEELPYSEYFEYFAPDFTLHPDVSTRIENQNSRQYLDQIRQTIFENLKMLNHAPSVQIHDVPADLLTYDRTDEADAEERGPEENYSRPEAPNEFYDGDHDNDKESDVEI

[1] = target: T1, Protein deacetylase HDAC6 (Homo sapiens, UniProt Q9UBN7); assay: Inhibition of recombinant HDAC6
T1 sequence (Q9UBN7 whole entry): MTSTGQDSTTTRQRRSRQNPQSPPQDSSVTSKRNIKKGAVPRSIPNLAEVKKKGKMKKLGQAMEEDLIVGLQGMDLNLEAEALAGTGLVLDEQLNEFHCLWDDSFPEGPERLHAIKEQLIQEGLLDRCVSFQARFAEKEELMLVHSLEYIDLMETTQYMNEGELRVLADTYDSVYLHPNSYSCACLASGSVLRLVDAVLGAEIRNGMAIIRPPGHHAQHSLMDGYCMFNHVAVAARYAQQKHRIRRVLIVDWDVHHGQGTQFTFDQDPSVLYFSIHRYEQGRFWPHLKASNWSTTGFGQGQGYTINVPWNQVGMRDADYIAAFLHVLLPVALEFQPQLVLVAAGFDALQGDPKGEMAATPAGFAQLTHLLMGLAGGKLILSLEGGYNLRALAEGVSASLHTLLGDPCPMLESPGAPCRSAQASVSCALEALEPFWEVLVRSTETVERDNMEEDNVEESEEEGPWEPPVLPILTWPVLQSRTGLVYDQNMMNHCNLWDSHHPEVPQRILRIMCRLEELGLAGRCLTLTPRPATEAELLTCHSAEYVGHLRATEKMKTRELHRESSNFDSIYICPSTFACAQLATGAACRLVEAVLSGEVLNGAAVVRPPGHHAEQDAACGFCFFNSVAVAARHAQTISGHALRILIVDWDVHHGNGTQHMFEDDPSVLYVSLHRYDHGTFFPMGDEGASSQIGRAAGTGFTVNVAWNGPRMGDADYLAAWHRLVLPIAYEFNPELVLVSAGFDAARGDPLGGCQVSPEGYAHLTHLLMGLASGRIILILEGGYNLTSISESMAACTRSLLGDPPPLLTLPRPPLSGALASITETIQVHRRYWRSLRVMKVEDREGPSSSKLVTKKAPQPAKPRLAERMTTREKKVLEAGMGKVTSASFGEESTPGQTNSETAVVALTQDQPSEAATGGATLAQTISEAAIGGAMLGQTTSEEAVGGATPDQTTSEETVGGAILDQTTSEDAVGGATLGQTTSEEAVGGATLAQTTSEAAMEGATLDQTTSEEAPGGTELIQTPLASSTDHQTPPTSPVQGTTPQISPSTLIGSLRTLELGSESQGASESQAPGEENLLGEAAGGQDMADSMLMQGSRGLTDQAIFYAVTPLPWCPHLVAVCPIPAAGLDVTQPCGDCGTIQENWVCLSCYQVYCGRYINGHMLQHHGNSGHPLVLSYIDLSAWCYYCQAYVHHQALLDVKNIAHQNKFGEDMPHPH

Histone deacetylase 8 = target: T2, Histone deacetylase 8 (Homo sapiens, UniProt Q9BY41); assay: Inhibition of recombinant HDAC8
T2 sequence (Q9BY41 whole entry): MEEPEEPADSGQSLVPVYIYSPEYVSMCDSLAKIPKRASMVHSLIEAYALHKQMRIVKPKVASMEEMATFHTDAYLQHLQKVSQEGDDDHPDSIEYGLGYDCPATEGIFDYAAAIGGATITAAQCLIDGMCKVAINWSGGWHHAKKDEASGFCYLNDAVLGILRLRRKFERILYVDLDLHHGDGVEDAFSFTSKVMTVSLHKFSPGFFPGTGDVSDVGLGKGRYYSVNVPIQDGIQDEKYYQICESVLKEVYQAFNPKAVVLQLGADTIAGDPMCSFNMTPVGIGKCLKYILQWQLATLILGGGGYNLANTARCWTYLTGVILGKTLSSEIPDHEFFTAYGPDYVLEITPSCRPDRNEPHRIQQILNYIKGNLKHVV

[2] = target: T3, Polyamine deacetylase HDAC10 (Homo sapiens, UniProt Q969S8); assay: Inhibition of HDAC10
T3 sequence (Q969S8 whole entry): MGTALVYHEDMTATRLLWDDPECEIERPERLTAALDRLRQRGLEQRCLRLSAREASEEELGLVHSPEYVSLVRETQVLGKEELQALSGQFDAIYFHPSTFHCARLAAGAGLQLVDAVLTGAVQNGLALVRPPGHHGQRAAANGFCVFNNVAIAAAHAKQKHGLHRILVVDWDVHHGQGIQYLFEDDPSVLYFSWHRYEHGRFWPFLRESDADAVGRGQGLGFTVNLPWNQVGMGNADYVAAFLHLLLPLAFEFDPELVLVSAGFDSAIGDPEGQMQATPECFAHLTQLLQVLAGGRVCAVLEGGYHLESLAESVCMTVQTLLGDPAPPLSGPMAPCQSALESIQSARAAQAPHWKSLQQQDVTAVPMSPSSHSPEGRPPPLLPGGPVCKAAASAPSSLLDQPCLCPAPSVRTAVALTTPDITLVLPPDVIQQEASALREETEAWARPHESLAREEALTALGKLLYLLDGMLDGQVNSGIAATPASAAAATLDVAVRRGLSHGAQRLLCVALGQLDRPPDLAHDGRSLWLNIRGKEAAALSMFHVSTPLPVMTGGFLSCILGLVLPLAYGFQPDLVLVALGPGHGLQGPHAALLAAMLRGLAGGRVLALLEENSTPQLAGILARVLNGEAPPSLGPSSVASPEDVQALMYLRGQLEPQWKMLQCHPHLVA

Histone deacetylase 1 = Histone deacetylase 1 (Homo sapiens, UniProt Q13547); assay: Inhibition of recombinant HDAC1
Histone deacetylase 1, sequence (Q13547 whole entry): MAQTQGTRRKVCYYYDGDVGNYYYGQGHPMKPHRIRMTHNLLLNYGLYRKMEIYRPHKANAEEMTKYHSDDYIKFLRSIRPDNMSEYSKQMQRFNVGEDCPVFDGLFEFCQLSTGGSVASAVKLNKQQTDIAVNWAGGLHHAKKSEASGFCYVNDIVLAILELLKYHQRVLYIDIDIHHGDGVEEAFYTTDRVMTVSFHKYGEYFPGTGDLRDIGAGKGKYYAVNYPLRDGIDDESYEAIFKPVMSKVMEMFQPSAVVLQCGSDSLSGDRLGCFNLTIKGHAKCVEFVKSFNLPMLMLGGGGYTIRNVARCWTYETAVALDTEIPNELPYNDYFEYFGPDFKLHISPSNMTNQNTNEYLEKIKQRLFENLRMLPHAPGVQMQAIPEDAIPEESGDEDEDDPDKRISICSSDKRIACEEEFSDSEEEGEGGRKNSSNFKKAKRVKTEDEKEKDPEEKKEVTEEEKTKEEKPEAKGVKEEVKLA

Histone deacetylase 2 = Histone deacetylase 2 (Homo sapiens, UniProt Q92769); assay: Inhibition of recombinant HDAC2
Histone deacetylase 2, sequence (Q92769 whole entry): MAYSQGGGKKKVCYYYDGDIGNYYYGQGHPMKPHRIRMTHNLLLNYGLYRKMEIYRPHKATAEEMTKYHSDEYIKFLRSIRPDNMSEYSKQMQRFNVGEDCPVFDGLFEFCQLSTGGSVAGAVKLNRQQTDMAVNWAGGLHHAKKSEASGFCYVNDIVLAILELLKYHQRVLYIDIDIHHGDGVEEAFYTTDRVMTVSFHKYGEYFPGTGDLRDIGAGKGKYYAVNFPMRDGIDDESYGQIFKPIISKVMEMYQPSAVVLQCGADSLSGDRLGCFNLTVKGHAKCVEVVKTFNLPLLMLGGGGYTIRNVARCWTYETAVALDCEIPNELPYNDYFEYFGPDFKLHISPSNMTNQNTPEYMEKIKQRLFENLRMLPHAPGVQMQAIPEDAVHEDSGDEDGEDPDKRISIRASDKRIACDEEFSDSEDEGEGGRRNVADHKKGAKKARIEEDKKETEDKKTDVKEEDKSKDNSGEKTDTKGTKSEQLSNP

CCC(=O)CCCCC[C@@H]1NC(=O)[C@H](C)NC(=O)C[C@H]([C@@H](C)CC)NC(=O)[C@H](Cc2cc3ccccc3[nH]2)NC1=O
IC50 (Histone deacetylase): 40 nM

CCC(=O)CCCCC[C@@H]1NC(=O)CNC(=O)C[C@H]([C@@H](C)CC)NC(=O)[C@H](Cc2cc3ccccc3[nH]2)N(C)C1=O
IC50 (Histone deacetylase): > 10000 nM

O=C(CS)NCCCCCC(=O)Nc1cccc2cccnc12
IC50 (Histone deacetylase): 900 nM

CC(=O)Nc1ccc(C(=O)Nc2ccccc2N)cc1 [TACEDINALINE]
inhibition in vivo at 30 mg/kg (HCT-116): 52%

O=C(CS)NCCCCCC(=O)Nc1ccc2ncccc2c1
IC50 (Histone deacetylase): 900 nM

CC[C@H](C)[C@H]1CC(=O)NCC(=O)N[C@@H](CCCCCC(N)=O)C(=O)N[C@@H](Cc2cc3ccccc3[nH]2)C(=O)N1 (cyclo([Asu](NH2)[Ala(indol-2-yl)][β3hI]G))
IC50 (Histone deacetylase): 2700 nM

COc1ccc(C(=O)Nc2cc(-c3cccs3)ccc2N)cc1
pIC50 (Histone deacetylase 3): < 4.70 | pIC50 [1]: < 4.70 | pIC50 (Histone deacetylase 8): < 4.70

CCC(=O)CCCCC[C@@H]1NC(=O)CNC(=O)C[C@H]([C@@H](C)CC)N(C)C(=O)[C@H](Cc2cc3ccccc3[nH]2)NC1=O
IC50 (Histone deacetylase): 2000 nM

Cn1cc(/C=C/C(=O)NO)cc1C(=O)c1ccccc1
pIC50 [2]: 7.30

CC(=O)Nc1ccc(C(=O)Nc2cc(-c3cccs3)ccc2N)cc1
pIC50 (Histone deacetylase 8): < 4.70

CC[C@H](C)[C@H]1CC(=O)NCC(=O)N[C@@H](CCCCCC(=O)NO)C(=O)N[C@@H](Cc2cc3ccccc3[nH]2)C(=O)N1 (cyclo([Asu](NHOH)[Ala(indol-2-yl)][β3hI]G))
IC50 (Histone deacetylase): < 1 nM

CCC(=O)CCCCC[C@@H]1NC(=O)CNC(=O)C[C@H]([C@@H](C)CC)NC(=O)[C@H](Cc2cc3ccccc3[nH]2)NC1=O
IC50 (Histone deacetylase): 19 nM

CC[C@H](C)[C@H]1CC(=O)NCC(=O)N[C@@H](CCCCCC(=O)O)C(=O)N[C@@H](Cc2cc3ccccc3[nH]2)C(=O)N1 (cyclo([Asu][Ala(indol-2-yl)][β3hI]G))
IC50 (Histone deacetylase): 300 nM

Cn1c(/C=C/C(=O)NO)ccc1C(=O)c1ccccc1
pIC50 [2]: 6.55

N=C/C=N/c1ccc(C(=O)Nc2cc(-c3cccs3)ccc2N)cc1
pIC50 (Histone deacetylase 3): < 4.70 | pIC50 [1]: < 4.70 | pIC50 (Histone deacetylase 1): 7.22 | pIC50 (Histone deacetylase 2): 7.70 | pIC50 (Histone deacetylase 8): < 4.70
